The results in this text go back to ChEMBL document CHEMBL1201862, “PubChem BioAssay data set” (2004).

SMILES strings stand for the structures.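 Method: 48-hour compound exposure of cells in 96-well plates, five concentrations, linear interpolation of endpoints. GI50 marks 50% less growth.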 Active and inactive are the calls of the source. Rule as the data show it: active = GI50 up to about 1.1 µM and inactive = higher. Where only a bound is given, the exact number is not on record here.

Common to all, as to assay: inhibition of tumour cell growth, NCI panel, 48 h
Test [1] deals with 786-0.
Test [2] has as its system ACHN.
The test system of test [3] is CAKI-1.
The test system of test [4] is CCRF-CEM.
Test [5] deals with EKVX.
For test [6], the system named is HCT-116.
The subject of test [7] is HT-29.
Test [8] deals with IGROV-1.
The test system of test [9] is M14.
Test [10] concerns Malme-3M.
Test [11] has as its system NCI-H226.
Test [12] concerns NCI-H23.
The test system of test [13] is NCI-H522.
The test system of test [14] is OVCAR-3.
The subject of test [15] is OVCAR-4.
Test [16] deals with SF-539.
Test [17] concerns SNB-19.
The subject of test [18] is SNB-75.
In test [19] the test system is SR.
In test [20] the test system is UACC-257.

Consider `Cc1ccc(C)c(NC(=O)C(=O)CC(=O)c2cccc3ccccc23)c1`, for which the GI50 in test [1], in test [2], in [3], in test [4], in test [5] and in [6] was > 100 µM (inactive) throughout. For the same molecule, the GI50 in [7], in test [8], in test [9], in test [10], in [11] and in [12] was > 100 µM (inactive) throughout. The GI50 in [13], in test [14], in [15], in [16], in [17] and in [18] was > 100 µM (inactive) each time. For the same molecule, the GI50 in [19] and in test [20] was > 100 µM (inactive) throughout.

On to `NC(CS)C(=O)NCCNc1ccc(NCCNC(=O)C(N)CS)c2c1C(=O)c1c(O)ccc(O)c1C2=O` (stereo not given), for which the GI50 in test [1] was 0.00662 µM (active); in [2], 0.00865 µM (active); in [3], 0.0243 µM (active); in test [4], 0.00149 µM (active); in test [5], 0.32 µM (active); in test [6] it was 0.0391 µM (active). The GI50 in test [7] is 0.0897 µM (active); in test [8], 0.219 µM (active); in [9], 0.0248 µM (active); in [10] it was 0.0653 µM (active); in test [11] it was 0.00847 µM (active); in test [12], 0.0115 µM (active). For the same molecule, the GI50 in test [13] is 0.0279 µM (active); in [14] it was 0.405 µM (active); in [15] it was 0.204 µM (active); in test [16] it was 0.0259 µM (active); in test [17], 0.0188 µM (active); in [18], 0.0236 µM (active). Moreover, the GI50 in test [19] is < 0.001 µM (active); in [20], 0.857 µM (active).

As for `COC(=O)C1CC23CCCN4CCC5(c6ccccc6N(C=O)C15CC2)C43` (stereo not given), the GI50 in test [1], in test [2], in test [3], in test [4], in test [5] and in [6] was > 100 µM (inactive) in each case. For the same molecule, the GI50 in test [7], in [8], in [9], in [10], in test [11] and in test [12] was > 100 µM (inactive) in each case. In addition, the GI50 in [13], in [14], in test [15], in [16], in [17] and in test [18] was > 100 µM (inactive) throughout. The GI50 in test [19] and in [20] was > 100 µM (inactive) each time.

For `CCOC(=O)c1c(C)n(Cc2ccccc2)c(=O)c2ccccc2c(=O)c2c(=O)ccc(=O)c1=2`, the GI50 in [1] was 27 µM (inactive); in [2], 30.7 µM (inactive); in test [3], 34.7 µM (inactive); in test [4] it was 42.1 µM (inactive); in test [5], > 100 µM (inactive); in test [6], 18.2 µM (inactive). Also, the GI50 is 42.8 µM (inactive) in [7]; 22.3 µM (inactive) in test [8]; 39.1 µM (inactive) in test [9]; 19.9 µM (inactive) in test [10]; > 100 µM (inactive) in [11]; 62.8 µM (inactive) in [12]. Moreover, the GI50 is 23.9 µM (inactive) in test [13]; 34.1 µM (inactive) in test [14]; 45 µM (inactive) in test [15]; 48.2 µM (inactive) in test [16]; > 100 µM (inactive) in test [17]; > 100 µM (inactive) in test [18]. In addition, the figures for the GI50 in test [19] and in [20] were 30.8 µM (inactive) and > 100 µM (inactive), respectively.

Take `CCOC(=O)N[C@H]1CCc2cc(OC)c(OC)c(OC)c2-c2ccc(SC)c(=O)cc21`: the GI50 in test [1] was < 0.01 µM (active); in [2], < 0.01 µM (active); in test [3] it was < 0.01 µM (active); in test [4], < 0.01 µM (active); in test [5], 29.9 µM (inactive); in test [6], < 0.01 µM (active). Besides, the GI50 in test [7] was < 0.01 µM (active); in test [8] it was < 0.01 µM (active); in [9] it was < 0.01 µM (active); in test [10], < 0.01 µM (active); in test [11] it was 0.163 µM (active); in [12] it was < 0.01 µM (active). In addition, the GI50 in [13] was < 0.01 µM (active); in test [14], < 0.01 µM (active); in [15], 16 µM (inactive); in test [16], < 0.01 µM (active); in [17], 0.108 µM (active); in [18] it was < 0.0434 µM (active). Also, the GI50 was < 0.01 µM (active) in [19] and 16.6 µM (inactive) in test [20].
